The record followed here is the supplement of paper PMC11127212.

A short description of data set [1]: collision cross section (TWIMS, N2) of ion [M-H]-; higher = larger gas-phase ion cross section. Particulars: ionization: ESI negative; LC: HILIC, pH 9.0 ammonium acetate. The method, then:
(§1)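 Reference standards (20-100 uM) were separated by HILIC UPLC (BEH HILIC, 45 °C): acidic pH 3.0 ammonium formate/formic acid for ESI+ and basic pH 9.0 ammonium acetate/ammonia for ESI-. They were analysed on a Synapt G2-Si traveling-wave IMS-QTOF with nitrogen drift gas (WH 30 V; WV 800 m/s in ESI+ and 1000 m/s in ESI-).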

Data set [2] is described as follows: retention time on BEH HILIC column (20 min gradient, 0.4 mL/min); higher = later elution. The conditions noted are these: LC: HILIC. On the procedure: as §1
A short description of data set [3]: collision cross section (TWIMS, N2) of ion [M+H]+; higher = larger gas-phase ion cross section. The conditions noted are these: ionization: ESI positive; LC: HILIC, pH 3.0 ammonium formate. On the procedure:
as §1

The mark [4] stands for this setting: ionization: ESI negative, pH 9.0 ammonium acetate.
The mark [5] stands for this setting: ionization: ESI positive, pH 3.0 ammonium formate.

SMILES strings stand for the structures.

Regarding `O=P(O)(O)OC[C@H]1O[C@H](O)[C@H](O)[C@@H]1O` [D-ribose 5-phosphate], the collision cross section in data set [1] is given as 139.6 Å². For the same compound, in data set [2] (setting [4]), the “retention time on BEH HILIC column” value worked out at 9.22 min.

In data set [1], `O=P(O)(O)OC[C@H]1O[C@@](O)(CO)[C@@H](O)[C@H](O)[C@@H]1O` [D-sedoheptulose 7-phosphate] came in with a collision cross section of 150.55 Å². For the same compound, the “retention time on BEH HILIC column” value in data set [2] (setting [4]) was 9.82 min.

`O=P(O)(O)OC[C@H]1O[C@](O)(COP(=O)(O)O)[C@@H](O)[C@@H]1O` [Fructose 1,6-bisphosphate] returned a collision cross section in data set [1] of 159.01 Å². For the same compound, the “retention time on BEH HILIC column” value in data set [2] (setting [4]) was determined as 12.9 min.

With `O=P(O)(O)O[C@H]1O[C@H](CO)[C@H](O)[C@H](O)[C@H]1O` [Galactose 1-phosphate], the collision cross section in data set [1] was 147.62 Å². Also, the “retention time on BEH HILIC column” value in data set [2] (setting [4]) turned out to be 11.8 min.

In data set [1], `N[C@@H]1[C@@H](O)[C@H](O)[C@@H](COP(=O)(O)O)O[C@@H]1O` [Glucosamine 6-phosphate] had a collision cross section of 150.31 Å². Also, the “retention time on BEH HILIC column” value in data set [2] (setting [4]) stood at 12.3 min.

Turning to `O=P(O)(O)O[C@H]1O[C@H](CO)[C@@H](O)[C@H](O)[C@H]1O` [Glucose 1-phosphate], in data set [1], the collision cross section worked out at 147.62 Å². The “retention time on BEH HILIC column” value in data set [2] (setting [4]) is 9.95 min.

Take `CC(C)C(=O)O` [Isobutyric acid]: in data set [1], the collision cross section turned out to be 118.84 Å². Besides, in data set [2] (setting [4]), the “retention time on BEH HILIC column” value worked out at 3.29 min.

In data set [1], `CC(C)CC(=O)O` [Isovaleric acid] came in with a collision cross section of 123.48 Å². Further, in data set [2] (setting [4]), the “retention time on BEH HILIC column” value was 0.9 min.

The compound `CC(C)CC(=O)C(=O)O` [Ketoleucine] had a collision cross section in data set [1] of 128.21 Å². Moreover, the “retention time on BEH HILIC column” value in data set [2] (setting [4]) is 1.93 min.

Compound `C[C@H](N)C(=O)O` [L-alanine] gave a collision cross section in data set [1] of 117.06 Å². For the same compound, in data set [2] (setting [4]), the “retention time on BEH HILIC column” value came out at 7.42 min.

Take `NC(=O)C[C@H](N)C(=O)O` [L-asparagine]: the collision cross section in data set [1] is given as 123.48 Å². The “retention time on BEH HILIC column” value in data set [2] (setting [4]) was 8.32 min.

As to `N[C@@H](CC(=O)O)C(=O)O` [L-aspartic acid], the collision cross section in data set [1] is 120.3 Å². In data set [2] (setting [4]), the “retention time on BEH HILIC column” value stood at 11.5 min.

`C[N+](C)(C)C[C@H](O)CC(=O)O` [L-carnitine] gave a collision cross section in data set [3] of 137.38 Å². Further, the “retention time on BEH HILIC column” value in data set [2] (setting [5]) came out at 8.64 min.

With `N[C@@H](CCC(=O)O)C(=O)O` [L-glutamic acid], the collision cross section in data set [1] worked out at 125.39 Å². Moreover, the “retention time on BEH HILIC column” value in data set [2] (setting [4]) amounted to 8.21 min.

The compound `N[C@@H](CO)C(=O)O` [L-serine] came in with a collision cross section in data set [1] of 118.21 Å². Also, the “retention time on BEH HILIC column” value in data set [2] (setting [4]) was determined as 7.75 min.

In turn, `C[C@@H](O)[C@H](N)C(=O)O` [L-threonine] returned a collision cross section in data set [1] of 121.54 Å². Also, in data set [2] (setting [4]), the “retention time on BEH HILIC column” value came out at 7.5 min.

On to `C[C@H](O)C(=O)O` [Lactic acid], for which, in data set [1], the collision cross section stood at 116.91 Å². Further, in data set [2] (setting [4]), the “retention time on BEH HILIC column” value came to 2.86 min.

As to `O=C(O)C[C@H](O)C(=O)O` [Malic acid], the collision cross section in data set [1] is 118.53 Å². Besides, the “retention time on BEH HILIC column” value in data set [2] (setting [4]) came out at 13 min.

Consider `C[C@@H](CC(=O)O)C(=O)O` [Methylsuccinic acid], for which the collision cross section in data set [1] stood at 121.94 Å². Besides, the “retention time on BEH HILIC column” value in data set [2] (setting [4]) was 1.28 min.

`CCCCCCCCCCCCCC(=O)O` [Myristic acid] returned a collision cross section in data set [1] of 168.91 Å². For the same compound, the “retention time on BEH HILIC column” value in data set [2] (setting [4]) is 0.73 min.

In data set [3], `NC(=O)c1cccnc1` [Niacinamide] had a collision cross section of 123.01 Å². The “retention time on BEH HILIC column” value in data set [2] (setting [5]) was found to be 1.21 min.

For `NCCc1c[nH]c2ccc(O)cc12` [Serotonin], in data set [1], the collision cross section is reported as 137.88 Å². Further, the “retention time on BEH HILIC column” value in data set [2] (setting [4]) was found to be 3.73 min.

With `NCCCCNCCCN` [Spermidine], the collision cross section in data set [3] is reported as 135.15 Å². In addition, the “retention time on BEH HILIC column” value in data set [2] (setting [5]) was determined as 12.7 min.

In data set [3], `NCCCNCCCCNCCCN` [Spermine] gave a collision cross section of 150.86 Å². Further, the “retention time on BEH HILIC column” value in data set [2] (setting [5]) was 13.9 min.

With `O=C(O)CCC(=O)O` [Succinic acid], in data set [1], the collision cross section came out at 118.44 Å². In addition, the “retention time on BEH HILIC column” value in data set [2] (setting [4]) was determined as 1.5 min.

As for `CC(=O)N[C@H]1[C@@H](OP(=O)(O)OP(=O)(O)OC[C@H]2O[C@@H](n3ccc(=O)[nH]c3=O)[C@H](O)[C@@H]2O)O[C@H](CO)[C@@H](O)[C@@H]1O` [UDPAG], the collision cross section in data set [1] was 219.62 Å². Besides, in data set [2] (setting [4]), the “retention time on BEH HILIC column” value is 9.42 min.

In data set [1], `O=C(O)[C@H]1O[C@H](OP(=O)(O)OP(=O)(O)OC[C@H]2O[C@@H](n3ccc(=O)[nH]c3=O)[C@H](O)[C@@H]2O)[C@H](O)[C@@H](O)[C@@H]1O` [UDPGA] registered a collision cross section of 209.99 Å². Also, in data set [2] (setting [4]), the “retention time on BEH HILIC column” value stood at 10.4 min.

For `CCCCC(=O)O` [Valeric acid], in data set [1], the collision cross section worked out at 123.48 Å². Also, in data set [2] (setting [4]), the “retention time on BEH HILIC column” value worked out at 3.22 min.

Compound `O=C(O)CCC(=O)C(=O)O` [a-ketoglutaric acid] had a collision cross section in data set [1] of 122.3 Å². Also, the “retention time on BEH HILIC column” value in data set [2] (setting [4]) was found to be 5.51 min.
